Measurements as given in US20230089267A1, “Compositions and Methods For Reducing Immune Intolerance and Treating Autoimmune Disorders” (Lapix Therapeutics, Inc., priority 2021, published 2023).

Legend:
CD4+/Foxp3+ T-cells = experiment: Foxp3 induction in human total PBMCs or sorted T-cells; format: cell-based; settings: 3 ng/ml; for percentage of CD4+/Foxp3+ T-cells: five days
Description: 2×10^5 Total PBMCs or sorted T-cells (CD3^+) were cultured in 96-well plates in the presence of ascending doses of Compound 2 ranging from 0 to 3 ng/ml for five days. On day 5, cells were washed and stained for CD3 and CD4 for 30 minutes on ice, then cells were washed with PBS and stained with viability dye to exclude dead cells. Stained cells were fixed/permeabilized and further stained for Foxp3. Finally, cells were washed and fixed for acquisition by Attune NXT flow cytometer. Data were analyzed by FlowJov10.

DSS-induced IBD model = experiment: Dextran sulfate sodium (DSS)-induced IBD model; format: in vivo, mice; settings: 30 μg SC for 7 days then 3 μg SC for 7 days, both disease cycles
Description: IBD was induced in 6-8-week-old female C57/B6 mice by adding 3% DSS (Sigma Aldrich) in their drinking water for 3 days on 2 different occasions (days 0, 1, and 2 of the induction phase and days 11, 12, and 13 of the re-exposure phase). One group (n=5) was treated with Compound 2 (30 μg SC for 7 days) during the disease induction phase followed by a lower dose of Compound 2 (3 μg SC for 7 days) during the disease re-exposure phase. […] Mice body weight was monitored daily starting on day 0.

passive MG model = experiment: Passive myasthenia gravis model, adoptive transfer to RAG2−/− mice; format: in vivo; settings: by day 10, SC daily for ten days
Description: In this passive MG model in B6 mice, donor mice (n=20, aged 6-8 weeks) were immunized with complete Freund's adjuvant (CFA) and nicotinic acetylcholine receptor (AChR) emulsion weekly for four weeks. Seven days after the last immunization, splenocytes were collected, and 10^6 cells/mouse were transferred to RAG2^−/− mice. The recipient mice (n=10/group) were treated one day after adoptive transfer with prednisone (1 μg/mouse) SC daily for ten days after disease onset or Compound 2 3 μg SC daily for ten days after disease onset, or were left untreated. Minimal manifestation of disease was defined as a return to a clinical score of 1 after an exacerbation (score 2 or higher). Time to return to minimal score was logged, and the likelihood of return was plotted for untreated animals, and standard of care (SOC; prednisone)- and Compound 2-treated animals.

[1] = test system: MOG35-55-induced murine EAE model; experiment: Escalation treatment paradigm in MOG35-55-induced murine EAE model (Example 8); format: in vivo, mice
Description: Compound 2 (0.03 mg/ml) was formulated with hydroxypropyl beta cyclodextrin (HPCD) 1:80 (Compound 2:HPCD) and stored at 4° C. until use. Natalizumab, an anti-α4β1 integrin antibody is a monoclonal antibody that is approved by U.S. Food and Drug Administration (FDA) for the treatment of relapsing forms of MS. […] Natalizumab was diluted in PBS to a final concentration of 15 mg/ml before dosing. DMF is a disease-modifying therapy (DMT) recommended for the treatment of active relapsing multiple sclerosis. DMF (1 g) was dissolved in 50 ml of 4% solution of METHOCEL© to give a 20 mg/ml solution of DMF. The solution was stored at 4° C. until use.
Experimental autoimmune (allergic) encephalomyelitis (EAE) is considered to be the best non-clinical model of multiple sclerosis (MS). Over 6,000 papers have been published in scientific journals on this model. EAE is characterized by immune responses against CNS tissue and can be induced in animals by immunizing them against proteins of the CNS. In the active EAE model, mice are immunized with MOG35-55 peptide emulsified in Complete Freund's Adjuvant (CFA) by subcutaneous injection at the tail base (100 μg of […] per mouse) under anesthesia. On the day of injection (Day 0) and two days later (Day 2), mice receive an intraperitoneal injection of pertussis toxin (PT) in PBS at 200 ng/mouse/dose (0.1 mL). Symptoms typically develop in mice 9-14 days after immunization (Day 0). Daily observation and scoring of mice start on Day 7 and continue until the end of the study. Table 5 (see Example 4 above) details the expected clinical symptoms and the scoring criteria used in this study.
This study was designed to evaluate the early sustained use of Compound 2 versus DMF in a treatment escalation paradigm (sustained use cohort), and Compound 2 versus natalizumab after DMF failure (escalation cohort). All animals in the escalation cohorts received 14 doses of DMF or Compound 2, or 3 doses of natalizumab, as per group assignment.
Probability of disease control: Disease control was defined as a clinical score of less than 2.5. Animals in the different treatment groups were monitored after the 3:1:1 randomization. A score of 2.5 was recorded as an event and analyzed by survival analysis in GraphPad Prism 9. Animals not reaching a clinical score of 2.5 by day 14, the end of the treatment period, were assigned a score of zero for the survival analysis.
Efficacy of Compound 2 versus DMF in early sustained use: Animals in the DMF group that reached a score of 2.5 were randomized 1:1:1, as per FIG. 5A. Animals randomized to continue DMF treatment were given the remainder of the 14 DMF doses. Animals from the first randomization that were treated with Compound 2 after disease onset continued treatment for a total of 14 doses. After the 14th dose, treatment was stopped and clinical score and overall survival were monitored.
Efficacy of Compound 2 versus natalizumab in a treatment escalation cohort: Animals in the DMF group that reached a score of 2.5 were randomized 1:1:1, as per FIG. 5A. Animals randomized to natalizumab were dosed 100 μg/mouse IV every 3 days for 3 total doses starting the same day a score of 2.5 was recorded. Animals randomized to Compound 2 were dosed with 3 μg/mouse SC QD for 14 total doses starting on the same day a score of 2.5 was recorded.
Overall survival: Death due to the disease was monitored in the early sustained use cohort as well as the escalation cohort. Death by disease (clinical score of 5) was recorded as an event “1,” death due to ulceration or for ex vivo analysis was recorded as “0.” Animals surviving until the end of the study were recorded “0” on day 27. Survival analysis was done in GraphPad Prism 9.

[2] = escalation cohort after DMF failure (score 2.5), by day 14 after switching

N[C@@H](CNC(=O)Cc1ccc(OCc2cccc3ccccc23)cc1)C(=O)O [Compound 2, (S)-2-Amino-3-(2-(4-(naphthalen-1-ylmethoxy)phenyl)acetamido)propanoic acid]
percentage of CD4+/Foxp3+ T-cells (CD4+/Foxp3+ T-cells; isolated T-cells (sorted)): 2.27% | percentage of CD4+/Foxp3+ T-cells (CD4+/Foxp3+ T-cells; total PBMC): 5.2% | increase of percentage of CD4+/Foxp3+ T-cells (CD4+/Foxp3+ T-cells; isolated T-cells (sorted)): 606% | increase of percentage of CD4+/Foxp3+ T-cells (CD4+/Foxp3+ T-cells; total PBMC): 171% | body weight change (DSS-induced IBD model): less weight loss and more rapid recovery than untreated animals | animals returned to minimal manifestation of disease (score 1) (passive MG model): 63% | disease course in early sustained use cohort ([1]; 14 doses, followed to end of study): better overall disease control during therapy (day 1 to 14) and after stopping therapy (day 14 to end of study) | mean clinical score after switching from DMF [1, 2]: 2.6 (SD=1.1) | median clinical score after switching from DMF [1, 2]: 2.5 | animals that survived until day 27, escalation cohort ([1]; switched from DMF): 8 out of 9 | overall survival, early sustained use cohort ([1]; to day 27): all animals treated with Compound 2 survived until day 27 | animals that progressed to a disease score of 2.5 ([1]; treatment from disease onset (score 1), over the entire treatment period (14 days)): 5 of the 9
